We go through 32 compounds from BindingDB's records for doi:10.7270/Q2MK6B9H (Nmmlsc, 2009).

In the first experiment the target is Ras-related protein Rab-7a (Canis lupus familiaris, UniProt P18067). Nature of the experiment: inhibition of fluorescent GTP loading on Rab7 – biochemical, dog Rab7, bead multiplex flow cytometry, Bodipy-FL-GTP, pyrazoline series, SAR follow-up (AID 2041).
Sequence of Ras-related protein Rab-7a (P18067 whole entry): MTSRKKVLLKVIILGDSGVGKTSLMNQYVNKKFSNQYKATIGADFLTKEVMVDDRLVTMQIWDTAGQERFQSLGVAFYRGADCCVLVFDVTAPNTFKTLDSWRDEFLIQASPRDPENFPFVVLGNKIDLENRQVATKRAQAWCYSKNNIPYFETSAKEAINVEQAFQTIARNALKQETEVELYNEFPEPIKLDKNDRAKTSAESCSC
Settings: not given
In general terms: A flow cytometer gives signals particle by particle.
The term EC50 denotes the concentration needed to bring the measured effect to its halfway point. Lower therefore signals an effect from little substance. The compound `Cc1ccccc1N1N=C(c2ccccc2)CC1c1ccc(N(C)C)cc1` (configuration not stated) [N,N-dimethyl-4-[2-(2-methylphenyl)-5-phenyl-3,4-dihydropyrazol-3-yl]aniline] came in with a 50% effective concentration (EC50) of over 30 µM.
On the same count and under the same terms, the value for `COc1ccc(C2CC(c3ccccc3)=NN2c2ccc(S(N)(=O)=O)cc2)cc1OC` (configuration not stated) [UNM-0000305823] was over 30 µM.
On the same count and under the same terms, the value for `COc1ccc(C2CC(c3ccc(Br)cc3)=NN2c2ccccc2Cl)cc1` (configuration not stated) [UNM-0000305832] was over 30 µM.
On the same count and under the same terms, the value for `O=S(=O)(O)c1ccc(N2N=C(c3ccccc3)CC2c2ccccc2)cc1` (configuration not stated) [UNM-0000305834] was over 30 µM.
Regarding `Cc1cccc(N2N=C(c3ccccc3)CC2c2ccccc2)c1` (configuration not stated) [UNM-0000305835], the concentration for a half-maximal effect (EC50) was over 30 µM.
On the same count and under the same terms, in the case of `O=[N+]([O-])c1ccc([N+]2=N[C-](c3ccccc3)CC2c2ccc(O)cc2)cc1` (configuration not stated) [UNM-0000305838] it was over 30 µM.
Regarding `CN(C)c1ccc(C2CC(c3ccc(Br)cc3)=NN2c2ccccc2)cc1` (configuration not stated) [UNM-0000305846], the EC50 was over 30 µM.
On the same count and under the same terms, in the case of `CN(C)c1ccc(C2CC(c3ccc(Cl)cc3)=NN2c2ccccc2)cc1` (configuration not stated) [UNM-0000305847] it was over 30 µM; in that of `COc1ccc(C2=NN(c3ccccc3)C(c3ccc(OC)c(OC)c3C(=O)O)C2)cc1` (configuration not stated) [UNM-0000305848], over 30 µM; in that of `Cc1ccccc1[N+]1=N[C-](c2ccccc2)CC1c1cccc([N+](=O)[O-])c1` (configuration not stated) [UNM-0000305854], over 30 µM.
On the same count and under the same terms, in the case of `COc1ccccc1N1N=C(c2ccccc2)CC1c1ccccc1` (configuration not stated) [UNM-0000305855] it was 10.2 µM.
The same measure, in the same setting: the value for `O=[N+]([O-])c1cccc(C2C[C-](c3ccccc3)N=[N+]2c2ccccc2)c1` (configuration not stated) [UNM-0000305857] was over 30 µM.
In the case of `COc1ccc(C2CC(c3ccc(Cl)cc3)=NN2c2ccccc2)cc1OC` (configuration not stated) [UNM-0000305858], the EC50 is over 30 µM.
Still for that read-out and setting: in the case of `FC(F)(F)c1cccc(N2N=C(c3ccc(Cl)cc3)CC2c2ccccc2Cl)c1` (configuration not stated) [UNM-0000305859] it was over 30 µM.
Same read-out and setting: in the case of `COc1ccc(C2=NN(c3ccccc3F)C(c3ccc(F)cc3)C2)cc1` (configuration not stated) [UNM-0000305860] it was over 30 µM.
In turn, `COc1ccc(C2=NN(c3ccc(Cl)cc3)C(c3ccccc3F)C2)cc1` (configuration not stated) [UNM-0000305863] gave an EC50 of over 30 µM.
Still for that read-out and setting: in the case of `COc1ccc(C2CC(c3ccc(F)cc3)=NN2c2ccccc2)cc1OC` (configuration not stated) [UNM-0000305864] it was over 30 µM.
On the same count and under the same terms, the value for `CN(C)c1ccc(C2CC(c3ccc(F)cc3)=NN2c2ccccc2)cc1` (configuration not stated) [UNM-0000305866] was over 30 µM.
On the same count and under the same terms, the value for `COc1ccc(C2CC(c3ccccc3)=NN2c2ccc(C(N)=O)cc2)cc1` (configuration not stated) [UNM-0000305870] was over 30 µM.
`COc1ccc(C2CC(c3ccccc3)=NN2c2ccc(C(=O)O)cc2)cc1` (configuration not stated) [UNM-0000306085]: the EC50 was over 30 µM.
The same measure, in the same setting: the value for `COc1ccc(C2CC(c3ccccc3F)=NN2c2ccc(S(N)(=O)=O)cc2)cc1` (configuration not stated) [UNM-0000306110] was over 30 µM; that for `COc1ccc(C2CC(c3ccccc3Br)=NN2c2ccc(S(N)(=O)=O)cc2)cc1` (configuration not stated) [UNM-0000306112] was over 30 µM; that for `COc1ccc(C2CC(c3cccc(Br)c3)=NN2c2ccc(S(N)(=O)=O)cc2)cc1` (configuration not stated) [UNM-0000306113] was over 30 µM.
`COc1ccc(C2CC(c3ccc(Br)cc3)=NN2c2ccc(S(N)(=O)=O)cc2)cc1` (configuration not stated) [UNM-0000306138] displayed an EC50 of over 30 µM.
`NS(=O)(=O)c1ccc(N2N=C(c3ccccc3)CC2c2cccc(Br)c2)cc1` (configuration not stated) [UNM-0000306147]: the EC50 is over 30 µM.
`Cc1ccccc1C1CC(c2ccccc2)=NN1c1ccc(S(N)(=O)=O)cc1` (configuration not stated) [UNM-0000306148] came in with an EC50 of over 30 µM.
Still for that read-out and setting: in the case of `COc1ccc(C2CC(c3ccccc3C)=NN2c2ccc(S(N)(=O)=O)cc2)cc1` (configuration not stated) [UNM-0000306152] it was over 30 µM; in that of `COc1ccc(C2CC(c3cccc(C)c3)=NN2c2ccc(S(N)(=O)=O)cc2)cc1` (configuration not stated) [UNM-0000306153], over 30 µM; in that of `NS(=O)(=O)c1ccc(N2N=C(c3ccccc3)CC2c2ccc(Br)cc2)cc1` (configuration not stated) [UNM-0000306160], over 30 µM.
The same measure, in the same setting: the value for `NS(=O)(=O)c1ccc(N2N=C(c3ccccc3)CC2c2cccc(Cl)c2)cc1` (configuration not stated) [UNM-0000306161] was over 30 µM.

The same experiment, now with this note: inactive by the depositor's call.
The compound `COc1ccc(C2=NN(c3ccccc3)C(c3ccc(Cl)cc3)C2)cc1` (configuration not stated) [UNM-0000305833] gave an EC50 of 0.679 µM. This lies in the sub-micromolar range.
Still for that read-out and setting: the value for `COc1ccc(C2CC(c3cccc(Cl)c3)=NN2c2ccc(S(N)(=O)=O)cc2)cc1` (configuration not stated) [UNM-0000306134] was 0.141 µM.
